The values that follow come from paper PMC7194099, “Transient expression and purification of β-caryophyllene synthase in Nicotiana benthamiana to produce β-caryophyllene in vitro” (PeerJ, 2020).

This experiment has as its target T1, AaCPS1 (β-caryophyllene synthase) (Artemisia annua, UniProt A0A059PYD5).
T1 construct: gene CPS; C-terminal 6xHis tag kept; transient expression in Nicotiana benthamiana (pEAQ-HT)
As to the kind of experiment: GC-MS of dodecane overlay. In kind it is biochemical. The settings on record: 20 µM FPP, 20 mM MgCl2, 20 mM Tris-HCl pH 7.0, 10% glycerol, 2 mM DTT, 30 °C, 4 h; products β-caryophyllene (main) and α-humulene.

SMILES strings stand for the structures.

T1 sequence (A0A059PYD5 1-550): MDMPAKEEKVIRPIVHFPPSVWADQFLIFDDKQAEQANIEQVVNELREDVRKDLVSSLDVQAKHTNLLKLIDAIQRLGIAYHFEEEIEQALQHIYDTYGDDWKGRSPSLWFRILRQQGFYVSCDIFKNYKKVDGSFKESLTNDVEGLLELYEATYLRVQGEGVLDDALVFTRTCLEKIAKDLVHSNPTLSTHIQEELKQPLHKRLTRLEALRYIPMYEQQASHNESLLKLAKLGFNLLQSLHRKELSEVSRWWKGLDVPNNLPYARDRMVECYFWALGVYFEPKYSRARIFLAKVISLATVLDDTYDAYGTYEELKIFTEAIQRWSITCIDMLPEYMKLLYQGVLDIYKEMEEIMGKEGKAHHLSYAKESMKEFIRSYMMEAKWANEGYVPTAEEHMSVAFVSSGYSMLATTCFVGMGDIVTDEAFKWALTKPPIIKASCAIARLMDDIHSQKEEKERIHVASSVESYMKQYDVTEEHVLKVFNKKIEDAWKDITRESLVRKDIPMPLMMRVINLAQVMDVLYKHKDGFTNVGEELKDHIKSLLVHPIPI

With `CC(C)=CCC/C(C)=C/CC/C(C)=C/COP(=O)(O)OP(=O)(O)O` [FPP, farnesyl diphosphate], the “GC-MS of dodecane overlay” value is “the purified AaCPS1 was incubated with the substrate FPP”.
